# Bridge positions count the residues as written; N and C are the ends. Square brackets hold non-standard residues; d marks the D form. Peptide text beside a SMILES is read from it. S5 = C=CCCC[C@](C)(N)C(=O)O
# Tests used:
# [1] = α-helix ratio of polypeptides by circular dichroism; format: physicochemical; settings: PBS solution, 1 mg/mL
# Method: The α-helix ratio of the polypeptide was measured by a circular dichromatograph (purchased from Jasco, Japan). The polypeptides MR2, S1, S2, S3, S4, S5, S6, S7, S8, S9, S10 and S11 prepared in Example 1 were dissolved in PBS solution, and the working concentration of the circular dichromatograph was adjusted to 1 mg/mL. […] Among them, the α-helix ratio refers to the percentage of the number of peptide segments of the polypeptide that maintains the alpha helix of the secondary structure in the peptide segments of the total polypeptide.
# [2] = biological target: T1, TRB3/MDM2 protein interaction (Homo sapiens, UniProt Q96RU7); assay: Co-immunoprecipitation: inhibition of binding of MDM2 to TRB3 in BEAS-2B cells; format: cell-based; settings: BEAS-2B cells with TRB3 expression plasmid, 1 mg/mL polypeptide, 12 hours, co-IP with MDM2 antibody
# T1 construct: host or cells: BEAS-2B
# T1 sequence (Q96RU7 1-358): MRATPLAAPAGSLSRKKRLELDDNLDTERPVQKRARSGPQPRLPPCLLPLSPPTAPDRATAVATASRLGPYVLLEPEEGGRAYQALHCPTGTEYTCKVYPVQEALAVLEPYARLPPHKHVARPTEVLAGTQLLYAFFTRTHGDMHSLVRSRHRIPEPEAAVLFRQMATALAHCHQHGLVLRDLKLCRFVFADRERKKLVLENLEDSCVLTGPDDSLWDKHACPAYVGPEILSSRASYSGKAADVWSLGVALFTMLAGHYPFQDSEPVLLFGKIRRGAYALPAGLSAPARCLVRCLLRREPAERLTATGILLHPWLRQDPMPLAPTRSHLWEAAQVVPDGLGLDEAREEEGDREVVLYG
# Method: 1. Human lung epithelial BEAS-2B cells (purchased from Institute of Basic Medical Sciences, Chinese Academy of Medical Sciences) were seeded in a 90 mm^2 culture dish. After the cells were adhered to the wall of culture dish, the TRB3 expression plasmid were transferred to the cells according to the method described in Example 5. After 24 hours, 1 mg/mL of the polypeptides MR2, S1, S2, S3, S4, S5, S6, S7, S8, S9, S10 or S11 prepared in Example 1 were added respectively, and the cells were incubated for 12 hours in a 37° C. incubator and then harvested.
# 2. Co-immunoprecipitation with MDM2 antibody was performed according to the method described in Example 3, followed by detection using TRB3 antibody.
# [3] = system: mice with bleomycin-induced pulmonary fibrosis; assay: Hydroxyproline content in lung of mice with pulmonary fibrosis; format: in vivo, C57BL/6 mice; settings: Table 3 groups, 2 mg/kg i.p.; left lung lobes; chloramine-T method
# Method: Male C57BL/6 mice were fasted overnight, then anesthetized with 45 mg/kg sodium pentobarbital by injection intraperitoneally (i.p.), and intratracheally injected with bleomycin at a dose of 3 U/kg. The specific operation steps are as follows: cut the neck skin of the mouse with as little trauma as possible, expose the trachea with the assistance of elbow ophthalmic forceps, puncture the trachea and inject about 50 μL of bleomycin into the trachea with a microsyringe, rotate the mouse quickly and stand it upright for 5 minutes in order to make bleomycin evenly enter the left and right lobe, thereby constructing an animal model. The whole operation was performed at a surgical table at about […]. Mice in the sham operation group were intratracheally injected with an equal amount of physiological saline for injection.
# Hydroxyproline accounts for 13.4% (w/w) of collagen, and extremely small amount of elastin, while it is absent in other proteins. […] Pulmonary fibrosis models were prepared according to the method described in Example 2 and administered in groups according to Table 3. The content of hydroxyproline in the lobes of left lung of the animals was measured 28 days later, and the condition of pulmonary fibrosis was evaluated.
# The specific method is as follows: the mice in the animal model prepared in Example 2 was feed in a SPF animal room and treated with polypeptide according to the dosing schedule of Table 3, and all left lobes of lung of the experimental animal was taken on the 21st day after the animal model was constructed and the wet weight was recorded. Then 10% (w/w) tissue homogenate was prepared by ultrasonic homogenization using physiological saline. About 150 μL of homogenate supernatant was taken, and 500 μL of alkali hydrolysate was added (provided by Hydroxyproline alkaline hydrolysis kit of Nanjing Jiancheng Bioengineering Technology Co., Ltd.). After vortex mixing, the mixture was treated with alkaline hydrolysis for 40 min under conditions of 120° C., 0.1 Kpa. After adjusting the pH value, the volume was held constant, and the supernatant was taken after performing activated carbon treatment. The hydroxyproline was determined according to the chloramine-T method (the method of the present example refers to the instruction provided with kit, which was purchased from Nanjing Jiancheng Bioengineering Technology Co., Ltd.). […] In FIG. 10, “##” represents that P value is less than 0.01 when comparing the content of hydroxyproline in the administration group with that in the sham operation group; and “*” represents that P value is less than 0.05 and“**” represents that P value is less than 0.01 when comparing the content of hydroxyproline in the administration group with that in bleomycin group.
# Hydroxyproline accounts for 13.4% (w/w) of collagen, and accounts for extremely small amount of elastin, while it is absent in other proteins. […] Pulmonary fibrosis models were prepared according to the method described in Example 2 and administered in groups according to Table 3. The content of hydroxyproline in the all lobes of left lung of the animals was measured 28 days later, and the condition of pulmonary fibrosis was evaluated.
# The specific method is as follows: the mice in the animal model prepared in Example 2 was feed in an SPF animal room and treated with polypeptide according to the dosing schedule of Table 3, and all the left lobes of lung of the experimental animal was taken on the 21st day after the animal model was constructed and the wet weight was recorded. Then 10% (w/w) tissue homogenate was prepared by ultrasonic homogenization using physiological saline. About 150 μL of homogenate supernatant was taken, and 500 μL of alkali hydrolysate was added (provided by Hydroxyproline alkaline hydrolysis kit of Nanjing Jiancheng Bioengineering Technology Co., Ltd.). After vortex mixing, the mixture was treated with alkaline hydrolysis for 40 min under conditions of 120° C., 0.1 Kpa. […]
smiles,measurement,setting,value
"CSCC[C@H](NC(=O)[C@H](CC(C)C)NC(=O)[C@@H](N)Cc1c[nH]cn1)C(=O)N[C@@H](C)C(=O)N[C@@H](CS)C(=O)N[C@@H](Cc1ccccc1)C(=O)N[C@H](C(=O)N[C@@H](CS)C(=O)N[C@@H](C)C(=O)N[C@@H](CCCCN)C(=O)N[C@@]1(C)CCCC=CCCC[C@@](C)(C(=O)O)NC(=O)[C@H](CCCCN)NC(=O)[C@H](CCCCN)NC(=O)[C@H](CC(C)C)NC1=O)[C@@H](C)O [S11, His-Leu-Met-Ala-Cys-Phe-Thr-Cys-Ala-Lys-S5-Leu-Lys-Lys-S5] (H-HLMACFTCAK[S5]LKK[S5]-OH; staple 11-15; N-terminus and C-terminus assumed)",α-helicity (%),[1],37.8%
same,α-helix ratio compared with polypeptide MR2 (in words),[1],significantly higher than that of polypeptide MR2
same,"interaction of TRB3 and MDM2 protein (FIG. 5, in words)",[2],interrupted
same,hydroxyproline content (μg/mg protein),[3],0.7725 μg/mg protein

# Reference: US20210179680A1, “POLYPEPTIDE, DERIVATIVES THEREOF, AND APPLICATION THEREOF IN PREPARATION OF DRUGS HAVING RESISTANCE TO PULMONARY FIBROSIS” (priority 2016, published 2021)
